Measured values from ChEMBL document CHEMBL3108718, “Replacement of the Disulfide Bridge in a KLK3-Stimulating Peptide Using Orthogonally Protected Building Blocks” (ACS Med Chem Lett, 2014).
Bridge positions count the residues as written; N and C are the ends. Square brackets hold non-standard residues; d marks the D form. Peptide text beside a SMILES is read from it. Asu = N[C@@H](CCCCCC(=O)O)C(=O)O; AllylGly = C=CC[C@H](N)C(=O)O; GABA = NCCCC(=O)O

The compounds below were run against T1, Prostate-specific antigen (Homo sapiens) (UniProt P07288) (assay: Stimulation of KLK3 (unknown origin) using S-2586 as substrate at 14 uM after 30 mins by spectrophotometric assay relative to control).
T1 sequence (whole entry): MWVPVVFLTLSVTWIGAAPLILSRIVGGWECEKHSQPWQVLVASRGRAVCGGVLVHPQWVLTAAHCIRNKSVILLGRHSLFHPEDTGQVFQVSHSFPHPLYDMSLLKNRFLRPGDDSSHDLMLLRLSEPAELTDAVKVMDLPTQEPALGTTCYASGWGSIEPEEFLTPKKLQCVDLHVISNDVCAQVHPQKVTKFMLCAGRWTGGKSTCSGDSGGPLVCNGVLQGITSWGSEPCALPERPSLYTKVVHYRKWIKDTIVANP
Compound CC(C)C[C@@H]1NC(=O)[C@H](Cc2ccc(O)cc2)NC(=O)[C@H](CC(=O)O)NC(=O)[C@H](Cc2ccc(O)cc2)NC(=O)[C@H](CC(N)=O)NC(=O)[C@H](Cc2cnc[nH]2)NC(=O)[C@H](C)NC(=O)[C@H](Cc2ccccc2)NC(=O)[C@H](C(C)C)NC(=O)[C@@H](N)CCCC[C@@H](C(=O)O)NC(=O)[C@H](C(C)C)NC1=O has an Activity of 250%. CC(C)C[C@@H]1NC(=O)[C@H](Cc2ccc(O)cc2)NC(=O)[C@H](CC(=O)O)NC(=O)[C@H](Cc2ccc(O)cc2)NC(=O)[C@H](CC(N)=O)NC(=O)[C@H](Cc2cnc[nH]2)NC(=O)[C@H](C)NC(=O)[C@H](Cc2ccccc2)NC(=O)[C@H](C(C)C)NC(=O)CCCCC[C@@H](C(=O)O)NC(=O)[C@H](C(C)C)NC1=O (VFAHNYDYLV[Asu]-OH; lactam N-11) was tested, and the Activity was 170%. Work on CC(C)C[C@@H]1NC(=O)[C@H](Cc2ccc(O)cc2)NC(=O)[C@H](CC(=O)O)NC(=O)[C@H](Cc2ccc(O)cc2)NC(=O)[C@H](CC(N)=O)NC(=O)[C@H](Cc2cnc[nH]2)NC(=O)[C@H](C)NC(=O)[C@H](Cc2ccccc2)NC(=O)[C@H](C(C)C)NC(=O)[C@@H](N)CSSC[C@@H](C(N)=O)NC(=O)[C@H](C(C)C)NC1=O (H-CVFAHNYDYLVC-NH2; disulfide 1-12) yielded an Activity of 360%. Compound CC(C)C[C@@H]1NC(=O)[C@H](Cc2ccc(O)cc2)NC(=O)[C@H](CC(=O)O)NC(=O)[C@H](Cc2ccc(O)cc2)NC(=O)[C@H](CC(N)=O)NC(=O)[C@H](Cc2cnc[nH]2)NC(=O)[C@H](C)NC(=O)[C@H](Cc2ccccc2)NC(=O)[C@H](C(C)C)NC(=O)[C@@H](N)C/C=C/C[C@@H](C(=O)O)NC(=O)[C@H](C(C)C)NC1=O (H-[AllylGly]VFAHNYDYLV[AllylGly]-OH; staple (E) 1-12) has an Activity of 160%. With CC(C)C[C@@H]1NC(=O)[C@H](Cc2ccc(O)cc2)NC(=O)[C@H](CC(=O)O)NC(=O)[C@H](Cc2ccc(O)cc2)NC(=O)[C@H](CC(N)=O)NC(=O)[C@H](Cc2cnc[nH]2)NC(=O)[C@H](C)NC(=O)[C@H](Cc2ccccc2)NC(=O)[C@H](C(C)C)NC(=O)CC/C=C/C[C@@H](C(=O)O)NC(=O)[C@H](C(C)C)NC1=O the Activity was 160%.

What follows are compounds tested against T1, Prostate-specific antigen (Homo sapiens) (assay: Stimulation of KLK3 (unknown origin) relative to control).
Compound CC(C)C[C@@H]1NC(=O)[C@H](Cc2ccc(O)cc2)NC(=O)[C@H](CC(=O)O)NC(=O)[C@H](Cc2ccc(O)cc2)NC(=O)[C@H](CC(N)=O)NC(=O)[C@H](Cc2cnc[nH]2)NC(=O)[C@H](C)NC(=O)[C@H](Cc2ccccc2)NC(=O)[C@H](C(C)C)NC(=O)CCCNC(=O)[C@H](CC(=O)O)NC(=O)[C@H](C(C)C)NC1=O (cyclo(AHNYDYLVD[GABA]VF)) has an Activity of 250%.
